According to patent publication US4259235A, “Tricyclic nitrogenous compounds having string plant growth regulating properties” (BASF Aktiengesellschaft, priority 1977, dated 1981):

Experiments:
[1] = tested on: spring wheat; experiment: Growth height of spring wheat, soil treatment, Example 10; format: in vivo, spring wheat ("Opal" variety)
Description: (§1) Spring wheat ("Opal" variety) and spring barley ("Union" variety) were grown under greenhouse conditions in plastic dishes 11.5 cm in diameter, in a peat substrate provided with sufficient nutrients. For the soil (preemergence) treatment, the active ingredients were poured, at two application rates, as aqueous formulations onto the surface of the substrate after sowing.
(§2) The plant height was measured at the end of the experiment. The figures obtained show the shortening effect of the active ingredients under investigation. The prior art compound β-chloroethylphosphonic acid (Ethephon, German Printed Application DAS No. 1,667,968) was used for comparison purposes.

[2] = tested on: spring barley; experiment: Growth height of spring barley, leaf treatment, Example 10; format: in vivo, spring barley ("Union" variety)
Description: as §1
(§3) Leaf treatment was effected by spraying the plants at a growth height of 10 cm with aqueous formulations of the active ingredients at two application rates.
as §2

[3] = tested on: spring barley; experiment: Growth height of spring barley, soil treatment, Example 10; format: in vivo, spring barley ("Union" variety)
Description: as §1, §2

[4] = tested on: spring wheat; experiment: Growth height of spring wheat, leaf treatment, Example 10; format: in vivo, spring wheat ("Opal" variety)
Description: as §1, §3, §2

In the case of `O=P(O)(O)CCCl` [Ethephon, β-chloroethylphosphonic acid, reference compound], the Plant height ([1]; 3 kg/ha) is reported as 29.0 cm, the “Plant height, % of untreated control” value ([1]; 3 kg/ha) is reported as 90.6% and the Plant height ([1]; 12 kg/ha) is reported as 25.0 cm. The “Plant height, % of untreated control” value ([1]; 12 kg/ha) was 78.1%, the Plant height ([2]; 1.5 kg/ha) was 27.0 cm and the “Plant height, % of untreated control” value ([2]; 1.5 kg/ha) was 96.4%. The Plant height ([2]; 6.0 kg/ha) was 24.5 cm, the “Plant height, % of untreated control” value ([2]; 6.0 kg/ha) was 87.5% and the Plant height ([3]; 3 kg/ha) was 32.0 cm. For the same compound, the “Plant height, % of untreated control” value ([3]; 3 kg/ha) was 93.3%, the Plant height ([3]; 12 kg/ha) was 27.5 cm and the “Plant height, % of untreated control” value ([3]; 12 kg/ha) was 80.2%. The Plant height ([4]; 1.5 kg/ha) was 30.0 cm, the “Plant height, % of untreated control” value ([4]; 1.5 kg/ha) was 91.5% and the Plant height ([4]; 6.0 kg/ha) was 25.0 cm. For the same compound, the “Plant height, % of untreated control” value ([4]; 6.0 kg/ha) was 76.2%.
With `Clc1ccc(C2N=NC3C4CC(C5N=NC45)C23)cc1` (centres unmarked) [drawing 392] the Plant height ([1]; 3 kg/ha) was 17.0 cm, the “Plant height, % of untreated control” value ([1]; 3 kg/ha) was 53.1% and the Plant height ([1]; 12 kg/ha) was 14.0 cm. For the same compound, the “Plant height, % of untreated control” value ([1]; 12 kg/ha) was 43.8%.
For `Brc1ccc(C2=NOC3C4CC(C5N=NC45)C23)cc1` (centres unmarked) [drawing 393], the Plant height ([1]; 3 kg/ha) was 26.5 cm, the “Plant height, % of untreated control” value ([1]; 3 kg/ha) was 82.8% and the Plant height ([1]; 12 kg/ha) was 25.5 cm. The “Plant height, % of untreated control” value ([1]; 12 kg/ha) was 79.7%.
With `O=[N+]([O-])c1ccc(C2=NOC3C4CC(C5N=NC45)C23)cc1` (centres unmarked) [drawing 394] the Plant height ([1]; 3 kg/ha) was 25.5 cm, the “Plant height, % of untreated control” value ([1]; 3 kg/ha) was 79.7% and the Plant height ([1]; 12 kg/ha) was 22.0 cm. For the same compound, the “Plant height, % of untreated control” value ([1]; 12 kg/ha) was 68.8%.
In the case of `Cc1ccc(C2=NOC3C4CC(C5N=NC45)C23)cc1` (centres unmarked) [drawing 395], the Plant height ([1]; 3 kg/ha) is reported as 23.5 cm, the “Plant height, % of untreated control” value ([1]; 3 kg/ha) is reported as 73.4% and the Plant height ([1]; 12 kg/ha) is reported as 22.0 cm. The “Plant height, % of untreated control” value ([1]; 12 kg/ha) was 68.8%.
With `COc1ccc(C2=NOC3C4CC(C5N=NC45)C23)cc1` (centres unmarked) [drawing 396] the Plant height ([1]; 3 kg/ha) was 27.0 cm, the “Plant height, % of untreated control” value ([1]; 3 kg/ha) was 84.4% and the Plant height ([1]; 12 kg/ha) was 24.5 cm. For the same compound, the “Plant height, % of untreated control” value ([1]; 12 kg/ha) was 76.6%.
For `Clc1ccc(C2=NOC3C4CC(C5N=NC45)C23)cc1` (centres unmarked) [drawing 397], the Plant height ([1]; 3 kg/ha) was 16.0 cm, the “Plant height, % of untreated control” value ([1]; 3 kg/ha) was 50.0% and the Plant height ([1]; 12 kg/ha) was 15.0 cm. For the same compound, the “Plant height, % of untreated control” value ([1]; 12 kg/ha) was 46.9%.
With `Clc1ccc(C2N=NC3C4CC(C5N=NC45)C23)cc1` (centres unmarked) [drawing 398] the Plant height ([4]; 1.5 kg/ha) was 23.5 cm, the “Plant height, % of untreated control” value ([4]; 1.5 kg/ha) was 71.6% and the Plant height ([4]; 6.0 kg/ha) was 22.0 cm. The “Plant height, % of untreated control” value ([4]; 6.0 kg/ha) was 67.1%.
In the case of `Brc1ccc(C2=NOC3C4CC(C5N=NC45)C23)cc1` (centres unmarked) [drawing 399], the Plant height ([4]; 1.5 kg/ha) is reported as 29.0 cm, the “Plant height, % of untreated control” value ([4]; 1.5 kg/ha) is reported as 88.4% and the Plant height ([4]; 6.0 kg/ha) is reported as 27.5 cm. The “Plant height, % of untreated control” value ([4]; 6.0 kg/ha) was 83.8%.
`O=[N+]([O-])c1ccc(C2=NOC3C4CC(C5N=NC45)C23)cc1` (centres unmarked) [drawing 400] was tested, and the Plant height ([4]; 1.5 kg/ha) was 29.0 cm, the “Plant height, % of untreated control” value ([4]; 1.5 kg/ha) was 88.4% and the Plant height ([4]; 6.0 kg/ha) was 27.0 cm. The “Plant height, % of untreated control” value ([4]; 6.0 kg/ha) was 82.3%.
With `Cc1ccc(C2=NOC3C4CC(C5N=NC45)C23)cc1` (centres unmarked) [drawing 401] the Plant height ([4]; 1.5 kg/ha) was 29.5 cm, the “Plant height, % of untreated control” value ([4]; 1.5 kg/ha) was 89.9% and the Plant height ([4]; 6.0 kg/ha) was 27.5 cm. For the same compound, the “Plant height, % of untreated control” value ([4]; 6.0 kg/ha) was 83.3%.
With `Clc1ccc(C2=NOC3C4CC(C5N=NC45)C23)cc1` (centres unmarked) [drawing 402] the Plant height ([4]; 1.5 kg/ha) was 29.0 cm, the “Plant height, % of untreated control” value ([4]; 1.5 kg/ha) was 88.4% and the Plant height ([4]; 6.0 kg/ha) was 27.0 cm. The “Plant height, % of untreated control” value ([4]; 6.0 kg/ha) was 82.3%.
In the case of `FC(F)(F)c1cccc(NC2C(I)C3CC2C2N=NC32)c1` (centres unmarked) [drawing 403], the Plant height ([4]; 1.5 kg/ha) is reported as 27.5 cm, the “Plant height, % of untreated control” value ([4]; 1.5 kg/ha) is reported as 83.3% and the Plant height ([4]; 6.0 kg/ha) is reported as 25.5 cm. The “Plant height, % of untreated control” value ([4]; 6.0 kg/ha) was 77.7%.
With `Clc1ccc(C2N=NC3C4CC(C5N=NC45)C23)cc1` (centres unmarked) [drawing 404] the Plant height ([3]; 3 kg/ha) was 22.0 cm, the “Plant height, % of untreated control” value ([3]; 3 kg/ha) was 64.1% and the Plant height ([3]; 12 kg/ha) was 20.0 cm. For the same compound, the “Plant height, % of untreated control” value ([3]; 12 kg/ha) was 58.3%.
